Reference: patent US20240190883A1, “KRAS PROTEIN DEGRADERS, PHARMACEUTICAL COMPOSITIONS THEREOF, AND THEIR THERAPEUTIC APPLICATIONS” (BioTheryX, Inc., priority 2021, published 2024)

What was measured:
Assay type in all cases: cell-based
SW48 (wt) cells = test: Cell viability assay (CELLTITER-GLO), SW48 cells; details: Homo sapiens, 72 h, 3 days incubation, 2.5% fetal bovine serum, read-out: Inhibition of Cancerous Cells IC50 (μM) SW48 (wt)
Procedure: (§1) H358, H23, SW48, and AsPC-1 cells were cultured in RPMI 1640 media supplemented with 10% fetal bovine serum, streptomycin, and penicillin. Lovo and SW480 cells were cultured in DMEM media supplemented with 10% fetal bovine serum, streptomycin, and penicillin. The cell lines were plated in their respective medium supplemented with 2.5% fetal bovine serum, streptomycin, and penicillin. All cell lines were plated in white walled 96-well plates at 2,000 cells/well or 384-well plates at 500 cells/well, except Lovo, which were plated at 4,000 or 1,000 cells/well, respectively. The cells were incubated in DMSO (control) or a compound for 3 days at 37° C. under 5% C02. A CELLTITER-GLO® reagent (100 μL) was then added to each well. After a 10 min incubation with shaking, luminescence was measured using an ENVISION® multimode plate reader. IC50 values are summarized in Table 1 and percentages of inhibition are summarized in Table 2, where compound T1 is 2-(4-(2-methyl-3,5-diphenylpyrazolo[1,5-a]pyrimidin-7-yl)piperazin-1-yl)ethan-1-ol.

Lovo (G13D) cells = test: Cell viability assay (CELLTITER-GLO), Lovo cells; details: Homo sapiens, 72 h, 3 days incubation, 2.5% fetal bovine serum, read-out: Inhibition of Cancerous Cells IC50 (μM) Lovo (G13D)
Procedure: as §1

H23 cells = test: Cell viability assay (CELLTITER-GLO), H23 cells; details: Homo sapiens, NCI-H23, 72 h, 3 days incubation, 2.5% fetal bovine serum, read-out: Inhibition of Cancerous Cells IC50 (μM) H23
Procedure: as §1

H358 (G12C) cells = test: Cell viability assay (CELLTITER-GLO), H358 cells; details: Homo sapiens, NCI-H358, 72 h, 3 days incubation, 2.5% fetal bovine serum, read-out: Inhibition of Cancerous Cells IC50 (μM) H358 (G12C)
Procedure: as §1

SW480 (G12V) cells = test: Cell viability assay (CELLTITER-GLO), SW480 cells; details: Homo sapiens, 72 h, 3 days incubation, 2.5% fetal bovine serum, read-out: Inhibition of Cancerous Cells IC50 (μM) SW480 (G12V)
Procedure: as §1

KRAS protein [1] = biological target: T1, KRAS protein (Homo sapiens, UniProt P01116, G13D); test: HIBIT degradation assay, H647 cells; details: 24 h, HiBiT signal normalized to CTG signal
T1 construct: engineered to express a Hobbit-tagged endogenous KRAS protein; endogenous in cells; host or cells: H647, endogenous KRAS locus engineered with a HiBiT tag
Procedure: (§2) HEK293, MIA PaCa-2, AsPc-1, SW620, and H647 cells were engineered to express a […] endogenous KRAS protein. The HEK293 and MIA PaCa-2 cells were cultured in DMEM media supplemented with 10% fetal bovine serum, streptomycin, and penicillin. The AsPc-1, SW620, and H647 were cultured in RPMI media supplemented with 10% fetal bovine serum, streptomycin, and penicillin. The cells were seeded in white walled 96-well plates at 20,000 cells/well in 100 μL culture media in duplicate plates. After incubated at 37° C. under 5% CO2 overnight, the cells were treated with DMSO (control) or a compound, followed by the addition of 100 μL culture media to each well. After the cells were incubated for 24 h at 37° C. under 5% C02, 150 μL media were removed from each well and 50 μL NANOGLO-LGBIT lytic reagent were added to each well, and 50 μL CELLTITER-GLO (CTG) reagent was added to the duplicate plate. Following a 10-minute incubation with shaking, luminescence was measured using a Perkin Elmer ENVISION multimode plate reader. HiBiT signal was normalized to CTG signal. The results are summarized in Table 3, where “A” represents a percentage degradation value of no less than 50%; “B” represents a percentage degradation value of less than 50% and no less than 25%; “C” represents a percentage degradation value of less than 25% and no less than 10%; and “D” represents a percentage degradation value of less than 10%.

KRAS protein [2] = biological target: T2, KRAS protein (Homo sapiens, UniProt P01116, G12C); test: HIBIT degradation assay, MIA PaCa-2 cells; details: 24 h, HiBiT signal normalized to CTG signal; for Effect on KRAS Protein Degradation, MIA PaCa-2, 3 μM: compound at 3 μM; for Effect on KRAS Protein Degradation, MIA PaCa-2, 5 μM: compound at 5 μM
T2 construct: engineered to express a Hobbit-tagged endogenous KRAS protein; endogenous in cells; host or cells: MIA PaCa-2, endogenous KRAS locus engineered with a HiBiT tag
Procedure: as §2

KRAS protein [3] = biological target: T3, KRAS protein (Homo sapiens, UniProt P01116); test: HIBIT degradation assay, HEK293 cells; details: 24 h, HiBiT signal normalized to CTG signal
T3 construct: engineered to express a Hobbit-tagged endogenous KRAS protein; endogenous in cells; host or cells: HEK293, endogenous KRAS locus engineered with a HiBiT tag
Procedure: as §2

KRAS protein [4] = biological target: T4, KRAS protein (Homo sapiens, UniProt P01116, G12D); test: HIBIT degradation assay, AsPC-1 cells; details: 24 h, HiBiT signal normalized to CTG signal; for Effect on KRAS Protein Degradation, AsPC-1, 3 μM: compound at 3 μM; for Effect on KRAS Protein Degradation, AsPC-1, 5 μM: compound at 5 μM
T4 construct: engineered to express a Hobbit-tagged endogenous KRAS protein; endogenous in cells; host or cells: AsPC-1, endogenous KRAS locus engineered with a HiBiT tag
Procedure: as §2

Molm-13 cells = test: Cell viability assay, inhibition of Molm-13 cells; details: Homo sapiens; for inhibition at 1 µM: compound at 1 μM
Procedure: [Worded in the source for another cell line; this cell line is reported under the same test.] as §1

T4 sequence (P01116 1-188 isoform P01116-2 G12D): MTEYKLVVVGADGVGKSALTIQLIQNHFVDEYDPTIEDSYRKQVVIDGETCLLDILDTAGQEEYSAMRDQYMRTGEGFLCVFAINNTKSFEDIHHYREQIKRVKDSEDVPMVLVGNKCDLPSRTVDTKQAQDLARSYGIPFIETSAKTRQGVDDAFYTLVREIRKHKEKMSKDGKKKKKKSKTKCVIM
T2 sequence (P01116 whole entry G12C): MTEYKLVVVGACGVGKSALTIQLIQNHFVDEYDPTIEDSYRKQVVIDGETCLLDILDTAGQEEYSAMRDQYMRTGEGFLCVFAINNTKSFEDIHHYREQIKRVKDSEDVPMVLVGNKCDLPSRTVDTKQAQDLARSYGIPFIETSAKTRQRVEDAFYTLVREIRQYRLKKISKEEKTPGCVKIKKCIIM
T1 sequence (P01116 1-185 isoform P01116-2 G13D limits assumed): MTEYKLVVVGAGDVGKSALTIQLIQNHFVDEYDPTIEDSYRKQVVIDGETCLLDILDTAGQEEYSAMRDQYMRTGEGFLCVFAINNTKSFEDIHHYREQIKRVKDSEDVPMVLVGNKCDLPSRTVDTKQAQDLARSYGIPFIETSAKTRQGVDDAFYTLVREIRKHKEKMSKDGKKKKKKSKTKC
T3 sequence (P01116 1-188 isoform P01116-2): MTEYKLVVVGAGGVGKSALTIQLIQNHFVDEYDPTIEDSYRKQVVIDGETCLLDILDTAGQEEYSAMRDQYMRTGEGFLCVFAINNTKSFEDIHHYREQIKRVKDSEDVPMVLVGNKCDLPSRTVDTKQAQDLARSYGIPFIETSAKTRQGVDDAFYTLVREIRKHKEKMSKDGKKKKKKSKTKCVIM

Compound	IC50 (SW48 (wt) cells) [µM]	IC50 (Lovo (G13D) cells) [µM]	IC50 (H358 (G12C) cells) [µM]	IC50 (SW480 (G12V) cells) [µM]	IC50 (H23 cells) [µM]	Effect on KRAS Protein Degradation, H647, 3 μM (KRAS protein [1]; compound at 3 μM)	Effect on KRAS Protein Degradation, H647, 5 μM (KRAS protein [1]; compound at 5 μM)	Effect on KRAS Protein Degradation, MIA PaCa-2, 3 μM (KRAS protein [2])	Effect on KRAS Protein Degradation, MIA PaCa-2, 5 μM (KRAS protein [2])	Effect on KRAS Protein Degradation, HEK293, 3 μM (KRAS protein [3]; compound at 3 μM)	Effect on KRAS Protein Degradation, HEK293, 5 μM (KRAS protein [3]; compound at 5 μM)	Effect on KRAS Protein Degradation, AsPC-1, 3 μM (KRAS protein [4])	Effect on KRAS Protein Degradation, AsPC-1, 5 μM (KRAS protein [4])	inhibition at 1 µM (Molm-13 cells) [%]	inhibition at 3 µM (Molm-13 cells; compound at 3 μM) [%]	inhibition at 10 µM (Molm-13 cells; compound at 10 μM) [%]
Cc1nn2c(N3CCN(CCO)CC3)cc(-c3cccc(CCCCCCCN4CCC(Nc5cccc(NC6CCC(=O)NC6=O)c5)CC4)c3)nc2c1-c1ccccc1 (stereo not drawn) [Compound A1, 3-((3-((1-(7-(3-(7-(4-(2-Hydroxyethyl)piperazin-1-yl)-2-methyl-3-phenyl-pyrazolo[1,5-a]pyrimidin-5-yl)phenyl)heptyl)piperidin-4-yl)amino)phenyl)amino)piperidine-2,6-dione]	0.54	0.43	0.9	0.4	0.81											
Cc1nn2c(N3CCN(CCO)CC3)cc(-c3cccc(CCCCCN4CCN(C(=O)CNc5cccc6c(C7CCC(=O)NC7=O)nn(C)c56)CC4)c3)nc2c1-c1ccccc1 (stereo not drawn) [Compound D5, 3-(7-((2-(4-(5-(3-(7-(4-(2-hydroxyethyl)piperazin-1-yl)-2-methyl-3-phenyl-pyrazolo[1,5-a]pyrimidin-5-yl)phenyl)pentyl)piperazin-1-yl)-2-oxoethyl)amino)-1-methyl-1H-indazol-3-yl)piperidine-2,6-dione]	0.5	0.27	0.49	0.42	0.95											
Cc1nn2c(N3CCN(CCO)CC3)cc(-c3ccc(F)cc3)nc2c1-c1cccc(CCCCCN2CCN(C(=O)CNc3ccc4c(C5CCC(=O)NC5=O)nn(C)c4c3)CC2)c1 (stereo not drawn) [Compound D19, 3-(6-((2-(4-(5-(3-(5-(4-Fluorophenyl)-7-(4-(2-hydroxyethyl)piperazin-1-yl)-2-methylpyrazolo[1,5-a]pyrimidin-3-yl)phenyl)pentyl)piperazin-1-yl)-2-oxoethyl)amino)-1-methyl-1H-indazol-3-yl)piperidine-2,6-dione]								D (a percentage degradation value of less than 10%)	C (a percentage degradation value of less than 25% and no less than 10%)	D (a percentage degradation value of less than 10%)	D (a percentage degradation value of less than 10%)	C (a percentage degradation value of less than 25% and no less than 10%)	C (a percentage degradation value of less than 25% and no less than 10%)			
Cc1nn2c(N3CCN(CCO)CC3)cc(-c3ccccc3)nc2c1-c1cccc(CCCN2CCN(C(=O)COc3cccc4c(C5CCC(=O)NC5=O)nn(C)c34)CC2)c1 (stereo not drawn) [Compound D20, 3-(7-(2-(4-(3-(3-(7-(4-(2-Hydroxyethyl)piperazin-1-yl)-2-methyl-5-phenyl-pyrazolo[1,5-a]pyrimidin-3-yl)phenyl)propyl)piperazin-1-yl)-2-oxoethoxy)-1-methyl-1H-indazol-3-yl)piperidine-2,6-dione]								C (a percentage degradation value of less than 25% and no less than 10%)	C (a percentage degradation value of less than 25% and no less than 10%)			D (a percentage degradation value of less than 10%)	C (a percentage degradation value of less than 25% and no less than 10%)	0	71	

Now from value to molecule, other results behind:

IC50 (SW48 (wt) cells) [µM]	IC50 (Lovo (G13D) cells) [µM]	IC50 (H358 (G12C) cells) [µM]	IC50 (SW480 (G12V) cells) [µM]	Compound	IC50 (H23 cells) [µM]	Effect on KRAS Protein Degradation, H647, 3 μM (KRAS protein [1]; compound at 3 μM)	Effect on KRAS Protein Degradation, H647, 5 μM (KRAS protein [1]; compound at 5 μM)	Effect on KRAS Protein Degradation, MIA PaCa-2, 3 μM (KRAS protein [2])	Effect on KRAS Protein Degradation, MIA PaCa-2, 5 μM (KRAS protein [2])	Effect on KRAS Protein Degradation, HEK293, 3 μM (KRAS protein [3]; compound at 3 μM)	Effect on KRAS Protein Degradation, HEK293, 5 μM (KRAS protein [3]; compound at 5 μM)	Effect on KRAS Protein Degradation, AsPC-1, 3 μM (KRAS protein [4])	Effect on KRAS Protein Degradation, AsPC-1, 5 μM (KRAS protein [4])	inhibition at 1 µM (Molm-13 cells) [%]	inhibition at 3 µM (Molm-13 cells; compound at 3 μM) [%]	inhibition at 10 µM (Molm-13 cells; compound at 10 μM) [%]
0.45	0.31	0.52	0.42	Cc1nn2c(N3CCN(CCO)CC3)cc(-c3cccc(CCCCCN4CCN(C(=O)CNc5cccc(C6CCC(=O)NC6=O)c5)CC4)c3)nc2c1-c1ccccc1 (stereo not drawn) [Compound B5, 3-(3-((2-(4-(5-(3-(7-(4-(2-hydroxyethyl)piperazin-1-yl)-2-methyl-3-phenyl-pyrazolo[1,5-a]pyrimidin-5-yl)phenyl)pentyl)piperazin-1-yl)-2-oxoethyl)amino)phenyl)-piperidine-2,6-dione]	0.83	D (a percentage degradation value of less than 10%)	A (a percentage degradation value of no less than 50%)									
1.9	1.3	2.4	0.7	Cc1nn2c(N3CCN(CCO)CC3)cc(-c3ccccc3)nc2c1-c1ccccc1 [Compound T1, 2-(4-(2-methyl-3,5-diphenylpyrazolo[1,5-a]pyrimidin-7-yl)piperazin-1-yl)ethan-1-ol, reference compound]	2.5									0		99
